Counter-ions that a name gives are not always drawn. Like-named read-outs stand apart in the source and are kept apart here.
What was measured:
Assay type in all cases: cell-based, rabbit
[1] = test system: VDCC currents in cerebral artery myocytes
[2] = test system: small diameter cerebral arteries from control and SAH rabbits
[3] = test system: small diameter cerebral arteries constricted by 60 mmol/L K+; assay: tissue or blood
[4] = target: T1, VDCC currents in cerebral artery myocytes (Oryctolagus cuniculus, UniProt P15381)
T1 construct: Vascular smooth muscle cells were enzymatically isolated from cerebral arteries as previously described; endogenous in cells; host or cells: freshly isolated cerebral artery myocytes from control and SAH (5 days post-surgery) New Zealand white rabbits

[5] = target: T2, VDCC currents in cerebral artery myocytes (Oryctolagus cuniculus, UniProt Q02343)
T2 construct: Vascular smooth muscle cells were enzymatically isolated from cerebral arteries as previously described; endogenous in cells; host or cells: freshly isolated cerebral artery myocytes from control and SAH (5 days post-surgery) New Zealand white rabbits
T2 sequence (Q02343 whole entry): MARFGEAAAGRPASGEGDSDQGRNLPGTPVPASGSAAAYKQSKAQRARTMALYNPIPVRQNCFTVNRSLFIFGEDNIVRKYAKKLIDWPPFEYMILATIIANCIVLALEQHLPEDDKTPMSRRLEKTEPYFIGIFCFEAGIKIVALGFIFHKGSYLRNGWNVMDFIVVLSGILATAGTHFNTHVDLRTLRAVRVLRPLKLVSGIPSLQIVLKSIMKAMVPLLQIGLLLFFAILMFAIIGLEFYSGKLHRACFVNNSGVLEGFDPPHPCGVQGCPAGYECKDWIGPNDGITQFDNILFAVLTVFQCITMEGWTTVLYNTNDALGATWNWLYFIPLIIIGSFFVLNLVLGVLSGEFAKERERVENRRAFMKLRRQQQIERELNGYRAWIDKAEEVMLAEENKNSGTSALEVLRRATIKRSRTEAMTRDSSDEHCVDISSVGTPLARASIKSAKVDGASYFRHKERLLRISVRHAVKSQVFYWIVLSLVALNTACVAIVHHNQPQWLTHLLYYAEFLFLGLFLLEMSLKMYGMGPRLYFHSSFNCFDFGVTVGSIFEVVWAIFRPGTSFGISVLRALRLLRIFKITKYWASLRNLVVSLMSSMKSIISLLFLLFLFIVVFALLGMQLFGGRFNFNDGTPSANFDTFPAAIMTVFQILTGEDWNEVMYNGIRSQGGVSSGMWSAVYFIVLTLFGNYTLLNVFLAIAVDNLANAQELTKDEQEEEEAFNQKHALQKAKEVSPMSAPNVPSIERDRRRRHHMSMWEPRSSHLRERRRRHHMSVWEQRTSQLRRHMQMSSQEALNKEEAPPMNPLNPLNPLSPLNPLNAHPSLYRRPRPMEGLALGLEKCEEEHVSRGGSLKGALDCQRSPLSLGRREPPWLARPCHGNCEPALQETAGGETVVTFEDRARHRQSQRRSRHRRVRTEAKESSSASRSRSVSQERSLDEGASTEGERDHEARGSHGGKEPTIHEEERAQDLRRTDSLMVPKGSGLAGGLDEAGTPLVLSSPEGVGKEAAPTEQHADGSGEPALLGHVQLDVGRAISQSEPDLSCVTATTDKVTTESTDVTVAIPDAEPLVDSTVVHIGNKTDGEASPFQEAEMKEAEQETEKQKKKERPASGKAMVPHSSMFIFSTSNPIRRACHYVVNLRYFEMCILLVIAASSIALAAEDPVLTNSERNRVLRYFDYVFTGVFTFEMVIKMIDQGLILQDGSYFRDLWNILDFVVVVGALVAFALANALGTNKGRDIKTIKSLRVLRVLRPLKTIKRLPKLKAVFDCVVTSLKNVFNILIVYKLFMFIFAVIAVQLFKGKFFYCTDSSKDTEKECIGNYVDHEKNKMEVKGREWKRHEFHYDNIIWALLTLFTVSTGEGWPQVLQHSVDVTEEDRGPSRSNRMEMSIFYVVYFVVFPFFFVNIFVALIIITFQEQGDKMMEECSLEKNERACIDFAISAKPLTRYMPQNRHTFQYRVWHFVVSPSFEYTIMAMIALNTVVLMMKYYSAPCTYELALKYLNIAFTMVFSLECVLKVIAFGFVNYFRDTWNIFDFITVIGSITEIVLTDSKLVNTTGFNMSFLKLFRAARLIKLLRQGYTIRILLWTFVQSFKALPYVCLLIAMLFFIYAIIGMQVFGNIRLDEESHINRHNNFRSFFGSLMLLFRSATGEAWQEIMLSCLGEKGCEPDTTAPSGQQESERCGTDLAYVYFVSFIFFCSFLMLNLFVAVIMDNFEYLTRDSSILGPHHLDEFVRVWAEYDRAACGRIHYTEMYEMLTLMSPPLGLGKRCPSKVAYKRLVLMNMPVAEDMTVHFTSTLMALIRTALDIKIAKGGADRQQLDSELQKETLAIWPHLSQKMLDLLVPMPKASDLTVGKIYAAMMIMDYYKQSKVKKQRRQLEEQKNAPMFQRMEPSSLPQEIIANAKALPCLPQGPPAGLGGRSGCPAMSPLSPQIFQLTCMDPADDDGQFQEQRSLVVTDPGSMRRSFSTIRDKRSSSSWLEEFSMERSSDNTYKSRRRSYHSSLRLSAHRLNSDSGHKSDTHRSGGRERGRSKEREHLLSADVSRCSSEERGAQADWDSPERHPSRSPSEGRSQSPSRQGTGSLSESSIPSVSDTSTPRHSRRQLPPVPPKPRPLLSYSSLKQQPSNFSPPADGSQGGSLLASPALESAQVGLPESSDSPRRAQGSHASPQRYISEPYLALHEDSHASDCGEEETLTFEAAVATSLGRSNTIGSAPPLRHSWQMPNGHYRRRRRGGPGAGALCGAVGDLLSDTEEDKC

T1 sequence (P15381 1-2166 isoform P15381-4): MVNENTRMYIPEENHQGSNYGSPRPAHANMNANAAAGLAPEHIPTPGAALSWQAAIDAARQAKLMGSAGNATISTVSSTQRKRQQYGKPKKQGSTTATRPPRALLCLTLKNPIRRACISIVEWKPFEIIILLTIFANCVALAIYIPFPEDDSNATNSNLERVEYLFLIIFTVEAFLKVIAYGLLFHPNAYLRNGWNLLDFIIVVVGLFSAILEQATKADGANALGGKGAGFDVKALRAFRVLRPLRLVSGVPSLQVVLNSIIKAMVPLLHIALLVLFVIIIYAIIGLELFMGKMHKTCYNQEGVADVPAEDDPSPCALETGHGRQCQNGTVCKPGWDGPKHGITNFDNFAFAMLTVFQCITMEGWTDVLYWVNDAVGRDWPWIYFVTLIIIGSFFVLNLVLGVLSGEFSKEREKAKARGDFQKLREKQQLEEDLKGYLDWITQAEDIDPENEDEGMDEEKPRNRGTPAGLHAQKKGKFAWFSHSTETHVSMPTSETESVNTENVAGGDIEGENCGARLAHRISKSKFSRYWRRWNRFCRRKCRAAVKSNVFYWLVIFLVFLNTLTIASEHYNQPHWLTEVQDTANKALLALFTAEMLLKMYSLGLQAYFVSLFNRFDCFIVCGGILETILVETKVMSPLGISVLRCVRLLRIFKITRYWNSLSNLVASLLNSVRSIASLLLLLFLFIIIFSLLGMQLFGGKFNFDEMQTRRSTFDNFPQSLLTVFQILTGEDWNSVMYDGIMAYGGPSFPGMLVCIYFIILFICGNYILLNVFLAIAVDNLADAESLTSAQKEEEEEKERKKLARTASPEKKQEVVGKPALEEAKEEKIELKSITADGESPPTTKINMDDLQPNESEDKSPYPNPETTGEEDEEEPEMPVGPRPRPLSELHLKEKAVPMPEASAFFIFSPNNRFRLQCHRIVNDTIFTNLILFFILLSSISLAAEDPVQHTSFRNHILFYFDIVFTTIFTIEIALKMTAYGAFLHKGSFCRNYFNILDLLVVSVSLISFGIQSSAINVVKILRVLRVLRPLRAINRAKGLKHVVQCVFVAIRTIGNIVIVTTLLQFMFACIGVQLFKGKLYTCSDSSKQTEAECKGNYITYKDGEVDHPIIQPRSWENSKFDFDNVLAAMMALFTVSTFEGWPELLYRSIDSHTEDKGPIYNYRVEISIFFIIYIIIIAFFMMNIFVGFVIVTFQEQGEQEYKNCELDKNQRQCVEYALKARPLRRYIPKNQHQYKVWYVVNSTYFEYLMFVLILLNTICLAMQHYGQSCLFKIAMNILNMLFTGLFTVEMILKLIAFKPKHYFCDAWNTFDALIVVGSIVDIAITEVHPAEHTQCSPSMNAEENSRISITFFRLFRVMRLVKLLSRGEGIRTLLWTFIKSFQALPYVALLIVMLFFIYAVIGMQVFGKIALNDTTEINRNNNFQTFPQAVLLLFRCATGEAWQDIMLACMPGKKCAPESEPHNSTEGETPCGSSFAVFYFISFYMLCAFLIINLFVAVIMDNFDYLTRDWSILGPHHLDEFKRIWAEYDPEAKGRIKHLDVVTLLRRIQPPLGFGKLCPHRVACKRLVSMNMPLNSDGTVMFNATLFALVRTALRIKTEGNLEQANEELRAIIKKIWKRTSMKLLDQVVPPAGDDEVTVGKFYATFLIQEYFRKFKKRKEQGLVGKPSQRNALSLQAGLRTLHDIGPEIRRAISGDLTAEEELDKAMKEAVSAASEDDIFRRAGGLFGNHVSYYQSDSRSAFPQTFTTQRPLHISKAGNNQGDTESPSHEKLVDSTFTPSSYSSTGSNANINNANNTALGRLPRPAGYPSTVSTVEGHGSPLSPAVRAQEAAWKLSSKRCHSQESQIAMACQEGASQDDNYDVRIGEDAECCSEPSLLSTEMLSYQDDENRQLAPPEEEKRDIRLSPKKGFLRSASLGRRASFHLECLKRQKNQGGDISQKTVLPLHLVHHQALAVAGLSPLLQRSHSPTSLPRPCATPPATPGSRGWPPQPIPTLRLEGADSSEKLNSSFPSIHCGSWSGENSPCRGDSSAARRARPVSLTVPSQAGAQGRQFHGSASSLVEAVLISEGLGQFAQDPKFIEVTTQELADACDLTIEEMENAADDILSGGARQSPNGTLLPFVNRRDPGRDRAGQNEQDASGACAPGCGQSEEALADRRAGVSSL

ω-Conotoxin GVIA
peak inward currents at +20 mV [1]: did not alter

ω-Agatoxin IVA
peak inward currents at +20 mV ([1]; SAH myocytes, 100 nmol/L): did not alter

H-Gly-Val-Asp-Lys-Ala-Gly-Cys-Arg-Tyr-Met-Phe-Gly-Gly-Cys-Ser-Val-Asn-Asp-Asp-Cys-Cys-Pro-Arg-Leu-Gly-Cys-His-Ser-Leu-Phe-Ser-Tyr-Cys-Ala-Trp-Asp-Leu-Thr-Phe-Ser-Asp-OH (H-GVDKAGCRYMFGGCSVNDDCCPRLGCHSLFSYCAWDLTFSD-OH; cysteine pairing not given here) [SNX-482]
dilation of pressurized cerebral arteries ([2]; arteries from SAH animals, pressurized to 100 mmHg): approximately 30% | effect on pressurized arteries ([2]; arteries from control animals, pressurized to 100 mmHg): no significant effect | dilation of cerebral arteries in the absence of diltiazem ([3]; arteries constricted with 60 mmol/L K+, SNX-482 220 nmol/L alone): can dilate | residual constriction observed in the presence of diltiazem ([3]; arteries cultured with oxyhemoglobin for 5 days, 60 mM K+, 1 mmol/L diltiazem, then SNX-482 220 nmol/L): effectively reversed | effect on VDCC currents ([4]; myocytes from control animals, SNX-482 200 nmol/L): no effect | reduction of VDCC currents ([5]; myocytes from SAH animals, SNX-482 200 nmol/L): approximately 30%

[Cd] [cadmium]
VDCC currents resistant to nifedipine (10 μmol/L) ([5]; SAH myocytes, cadmium 200 μmol/L, n=4, data not shown): abolished

COc1ccc([C@@H]2Sc3ccccc3N(CCN(C)C)C(=O)[C@@H]2OC(C)=O)cc1 (relative stereo) [diltiazem, benzothiazepin-4(5H)-one, 3-(acetyloxy)-5-[2-(dimethylamino)ethyl]-2,3-dihydro-2-(4-methoxyphenyl)-,(+)-cis-,monohydrochloride]
pressure-induced constriction at 100 mmHg ([2]; arteries from control animals, diltiazem 50 μmol/L): abolished | IC50 ([3]; Oryctolagus cuniculus, 120 h): 16.9 ± 6.9 µM | EC50 ([3]; Oryctolagus cuniculus, B164, 0 h, read-out: EC50 of diltiazem treatment of K+ induced constricted arteries, Day 0, −Oxy Hb): 1.02 ± 0.07 µM | EC50 ([3]; Oryctolagus cuniculus, B164, 24 h, read-out: EC50 of diltiazem treatment of K+ induced constricted arteries, Day 1, +Oxy Hb): 0.95 ± 0.14 µM | EC50 ([3]; Oryctolagus cuniculus, B164, 24 h, read-out: EC50 of diltiazem treatment of K+ induced constricted arteries, Day 1, −Oxy Hb): 0.76 ± 0.07 µM | EC50 ([3]; Oryctolagus cuniculus, B164, 72 h, read-out: EC50 of diltiazem treatment of K+ induced constricted arteries, Day 3, +Oxy Hb): 1.07 ± 0.06 µM | EC50 ([3]; Oryctolagus cuniculus, B164, 72 h, read-out: EC50 of diltiazem treatment of K+ induced constricted arteries, Day 3, −Oxy Hb): 0.78 ± 0.12 µM | EC50 ([3]; Oryctolagus cuniculus, B164, 120 h, read-out: EC50 of diltiazem treatment of K+ induced constricted arteries, Day 5, +Oxy Hb): 16.9 ± 6.9 µM | EC50 ([3]; Oryctolagus cuniculus, B164, 120 h, read-out: EC50 of diltiazem treatment of K+ induced constricted arteries, Day 5, −Oxy Hb): 1.1 ± 0.1 µM | reduction of K+-induced constriction ([3]; […], diltiazem 1 mmol/L, 60 mmol/L K+): 99.7±0.4% | block of membrane currents [4]: completely blocked | current resistant to the L-type VDCC antagonist [1]: approximately 20%

Reference: patent US8268795B2 (priority 2005, dated 2012)
